In US9302999B2, “Substituted triazoles as herbicides” (E. I. DU PONT DE NEMOURS AND COMPANY, priority 2012, dated 2016):

Experiments:
Format in all cases: in vivo
Settings in all cases: Preemergence, scale 0 to 100
[1] = test system: sandbur (southern sandbur, Cenchrus echinatus); experiment: Test E pre-/postemergence: sandbur
Text: (§1) Seeds of plant species selected from corn (Zea mays), soybean (Glycine max), velvetleaf (Abutilon theophrasti), lambsquarters (Chenopodium album), poinsettia, wild (wild poinsettia, Euphorbia heterophylla), pigweed, palmer (palmer pigweed, Amaranthus palmeri), waterhemp (common waterhemp, Amaranthus rudis), smartweed (ladysthumb smartweed, Polygonum persicaria), surinam grass (Brachiaria decumbens), crabgrass, large (large crabgrass, Digitaria sanguinalis), crabgrass, Brazil (Brazilian crabgrass, Digitaria horizontalis), panicum, fall (fall panicum, Panicum dichotomiflorum), foxtail, giant (giant foxtail, Setaria faberii), foxtail, green (green foxtail, Setaria viridis), goosegrass (Eleusine indica), johnsongrass (Sorghum halepense), ragweed (common ragweed, Ambrosia elation), barnyardgrass (Echinochloa crus-galli), sandbur (southern sandbur, Cenchrus echinatus), arrowleaf sida (Sida rhombifolia), ryegrass, Italian (Italian ryegrass, Lolium multiflorum), dayflower, (VA) (Virginia dayflower, Commelina virginica), field bindweed (Convolvulus arvensis), cocklebur (common cocklebur, Xanthium strumarium), morningglory (Ipomoea coccinea), nightshade (eastern black nightshade, Solanum ptycanthum), kochia (Kochia scoparia), nutsedge, yellow (yellow nutsedge, Cyperus esculentus) and beggarticks (hairy beggarticks, Bidens pilosa) were planted into a silt loam soil and treated preemergence with test chemicals formulated in a non-phytotoxic solvent mixture which included a surfactant. At the same time, plants selected from these crop and weed species were planted in pots containing a growing medium comprising spaghnum peat moss, vermiculite, wetting agent and starter nutrients and treated with postemergence applications of some of the test chemicals formulated in the same manner. Plants ranged in height from 2 to 18 cm for postemergence treatments (1- to 4-leaf stage).
(§2) Treated plants and controls were maintained in a greenhouse for 14 to 21 days, after which time all species were compared to controls and visually evaluated. Plant response ratings, summarized in Table E, are based on a scale of 0 to 100 where 0 is no effect and 100 is complete control. A dash (-) response means no test result.

[2] = test system: foxtail, green (green foxtail, Setaria viridis); experiment: Test E pre-/postemergence: foxtail, green
Text: as §1, §2

corn (Zea mays) = experiment: Test E pre-/postemergence: corn
Text: as §1, §2

[3] = test system: field bindweed (Convolvulus arvensis); experiment: Test E pre-/postemergence: field bindweed
Text: as §1, §2

[4] = test system: pigweed, palmer (palmer pigweed, Amaranthus palmeri); experiment: Test E pre-/postemergence: pigweed, palmer
Text: as §1, §2

[5] = test system: waterhemp (common waterhemp, Amaranthus rudis); experiment: Test E pre-/postemergence: waterhemp
Text: as §1, §2

In the case of `Cc1nn(-c2ccc(C(F)(F)F)cn2)nc1Oc1ccnc(C(F)(F)F)c1` [Compound 23], the “Plant response rating: Sandbur” value ([1]; 16 g ai/ha) is reported as 0, the “Plant response rating: Sandbur” value ([1]; 31 g ai/ha) is reported as 0 and the “Plant response rating: Sandbur” value ([1]; 62 g ai/ha) is reported as 0. The “Plant response rating: Sandbur” value ([1]; 125 g ai/ha) was 25, the “Plant response rating: Sandbur” value ([1]; 250 g ai/ha) was 65 and the “Plant response rating: Foxtail, Green” value ([2]; 16 g ai/ha) was 0. For the same molecule, the “Plant response rating: Foxtail, Green” value ([2]; 31 g ai/ha) was 0, the “Plant response rating: Foxtail, Green” value ([2]; 62 g ai/ha) was 5 and the “Plant response rating: Foxtail, Green” value ([2]; 125 g ai/ha) was 70. For the same molecule, the “Plant response rating: Foxtail, Green” value ([2]; 250 g ai/ha) was 95, the “Plant response rating: Corn” value (corn (Zea mays); 16 g ai/ha) was 0 and the “Plant response rating: Corn” value (corn (Zea mays); 31 g ai/ha) was 0. For the same molecule, the “Plant response rating: Corn” value (corn (Zea mays); 62 g ai/ha) was 0, the “Plant response rating: Corn” value (corn (Zea mays); 125 g ai/ha) was 0 and the “Plant response rating: Corn” value (corn (Zea mays); 250 g ai/ha) was 20. The “Plant response rating: Field Bindweed” value ([3]; 16 g ai/ha) was 0, the “Plant response rating: Field Bindweed” value ([3]; 31 g ai/ha) was 0 and the “Plant response rating: Field Bindweed” value ([3]; 62 g ai/ha) was 0. The “Plant response rating: Field Bindweed” value ([3]; 125 g ai/ha) was 0, the “Plant response rating: Field Bindweed” value ([3]; 250 g ai/ha) was 70 and the “Plant response rating: Pigweed, Palmer” value ([4]; 16 g ai/ha) was 90. The “Plant response rating: Pigweed, Palmer” value ([4]; 31 g ai/ha) was 90, the “Plant response rating: Pigweed, Palmer” value ([4]; 62 g ai/ha) was 100 and the “Plant response rating: Pigweed, Palmer” value ([4]; 125 g ai/ha) was 100. The “Plant response rating: Pigweed, Palmer” value ([4]; 250 g ai/ha) was 100, the “Plant response rating: Waterhemp” value ([5]; 16 g ai/ha) was 0 and the “Plant response rating: Waterhemp” value ([5]; 31 g ai/ha) was 80. For the same molecule, the “Plant response rating: Waterhemp” value ([5]; 62 g ai/ha) was 80, the “Plant response rating: Waterhemp” value ([5]; 125 g ai/ha) was 98 and the “Plant response rating: Waterhemp” value ([5]; 250 g ai/ha) was 100.

With `FC(F)(F)COc1nn(-c2ccc(C(F)(F)F)cc2)nc1Cc1ccnc(C(F)(F)F)c1` [Compound 14, 4-[[5-(2,2,2-trifluoroethoxy)-2-[4-(trifluoromethyl)phenyl]-2H-1,2,3-triazol-4-yl]methyl]-2-(trifluoromethyl)pyridine] the “Plant response rating: Sandbur” value ([1]; 16 g ai/ha) was 5, the “Plant response rating: Sandbur” value ([1]; 31 g ai/ha) was 5 and the “Plant response rating: Sandbur” value ([1]; 62 g ai/ha) was 15. For the same molecule, the “Plant response rating: Sandbur” value ([1]; 125 g ai/ha) was 50, the “Plant response rating: Sandbur” value ([1]; 250 g ai/ha) was 50 and the “Plant response rating: Foxtail, Green” value ([2]; 16 g ai/ha) was 25. For the same molecule, the “Plant response rating: Foxtail, Green” value ([2]; 31 g ai/ha) was 35, the “Plant response rating: Foxtail, Green” value ([2]; 62 g ai/ha) was 50 and the “Plant response rating: Foxtail, Green” value ([2]; 125 g ai/ha) was 70. The “Plant response rating: Foxtail, Green” value ([2]; 250 g ai/ha) was 100, the “Plant response rating: Corn” value (corn (Zea mays); 16 g ai/ha) was 0 and the “Plant response rating: Corn” value (corn (Zea mays); 31 g ai/ha) was 0. The “Plant response rating: Corn” value (corn (Zea mays); 62 g ai/ha) was 0, the “Plant response rating: Corn” value (corn (Zea mays); 125 g ai/ha) was 0 and the “Plant response rating: Corn” value (corn (Zea mays); 250 g ai/ha) was 0. The “Plant response rating: Field Bindweed” value ([3]; 16 g ai/ha) was 5, the “Plant response rating: Field Bindweed” value ([3]; 31 g ai/ha) was 20 and the “Plant response rating: Field Bindweed” value ([3]; 62 g ai/ha) was 65. The “Plant response rating: Field Bindweed” value ([3]; 125 g ai/ha) was 65, the “Plant response rating: Field Bindweed” value ([3]; 250 g ai/ha) was 75 and the “Plant response rating: Pigweed, Palmer” value ([4]; 16 g ai/ha) was 75. For the same molecule, the “Plant response rating: Pigweed, Palmer” value ([4]; 31 g ai/ha) was 100, the “Plant response rating: Pigweed, Palmer” value ([4]; 62 g ai/ha) was 100 and the “Plant response rating: Pigweed, Palmer” value ([4]; 125 g ai/ha) was 100. For the same molecule, the “Plant response rating: Pigweed, Palmer” value ([4]; 250 g ai/ha) was 100, the “Plant response rating: Waterhemp” value ([5]; 16 g ai/ha) was 90 and the “Plant response rating: Waterhemp” value ([5]; 31 g ai/ha) was 98. For the same molecule, the “Plant response rating: Waterhemp” value ([5]; 62 g ai/ha) was 100, the “Plant response rating: Waterhemp” value ([5]; 125 g ai/ha) was 100 and the “Plant response rating: Waterhemp” value ([5]; 250 g ai/ha) was 100.
